Reference: publication PMC6009937, “Comparing hydrazine-derived reactive groups as inhibitors of quinone-dependent amine oxidases” (Journal of Enzyme Inhibition and Medicinal Chemistry, 2017)
Where “and” joins values, the source holds several entries; their conditions need not be identical. Equal entries are not always repeated. Where two headings read alike, the source gives them in different places.

Columns and labels:
Lysyl oxidase (LOX) = molecular target: T1, Lysyl oxidase (LOX) (Bos taurus, UniProt P33072); experiment: LOX activity assay (Amplex UltraRed/HRP fluorescence) after preincubation of enzyme with inhibitor; format: biochemical, bovine; details: for Selectivity factor (LOX IC50 value divided by LSDAO IC50 value): LOX vs LSDAO; for remaining activity at 4 µM: 4 µM inhibitor; for remaining activity at 4 µM / remaining activity at 7 µM / remaining activity at 20 µM / remaining activity at 100 µM / remaining activity at 500 µM / remaining activity at 40 µM: read-out: Average Percent Activity Remaining, LOX; for remaining activity at 7 µM: 7 µM inhibitor; for remaining activity at 20 µM: 20 µM inhibitor; for remaining activity at 100 µM: 100 µM inhibitor; for remaining activity at 500 µM: 500 µM inhibitor; for LOX k2 (range) / KI (inactivation): Kitz-Wilson analysis; for LOX k2 (range): rate constant for irreversible reaction; for KI (inactivation): reversible binding constant, read-out: LOX KI^-1 (range); for remaining activity at 40 µM: 40 µM inhibitor
T1 construct: LOX was isolated from bovine aorta; from tissue; host or cells: bovine aorta
T1 sequence (P33072 170-418): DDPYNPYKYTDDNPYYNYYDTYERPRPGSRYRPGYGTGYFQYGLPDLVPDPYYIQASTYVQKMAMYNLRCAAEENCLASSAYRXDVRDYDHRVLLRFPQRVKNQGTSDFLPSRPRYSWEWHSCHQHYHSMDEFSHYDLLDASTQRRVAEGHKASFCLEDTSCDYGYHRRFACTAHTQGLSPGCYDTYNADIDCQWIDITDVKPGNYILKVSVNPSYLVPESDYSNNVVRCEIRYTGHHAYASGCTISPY
Description: LOX was isolated from bovine aorta at 4 °C using slight modifications of previously published procedures. All steps were carried out at in 16 mM phosphate, pH 7.8 (buffer B). After blending the aorta in buffer B containing 400 mM NaCl and 1 mM EDTA to remove soluble contaminants, the enzyme was extracted with buffer B containing 4 M urea and 1 mM EDTA. The crude enzyme extract was filtered, diluted with an equal volume of buffer B to obtain a urea concentration of 2 M, and loaded onto a DEAE column. After washing with buffer B containing 400 mM NaCl, the enzyme was eluted with buffer B containing 400 mM NaCl and 6 M urea. The urea concentration was reduced to 4 M by adding buffer B, and the solution was added to a slurry of ceramic hydroxyapatite in buffer B containing 4 M urea. After stirring, the supernatant was removed by filtration and dialyzed overnight against buffer B. The solution was added to a slurry of ceramic hydroxyapatite in buffer B, washed with small portions of 1 M phosphate and then buffer B, and then eluted with buffer B containing 6 M urea and 500 mM NaCl. After concentration to about 20 mL, the protein was applied to a Sephacryl S-200 gel filtration column preequilibrated with buffer B containing 50 mM NaCl, 1 mM EDTA, and 6 M urea and eluted with the same buffer. Active fractions were concentrated to 1 mL. Total protein concentration for 6 M urea solutions[33] was determined by its absorption at 280 nm using a molar extinction coefficient of 8.39 × 10^4 M^−1 cm ^−1.
(§1) The activity assay is adopted from the method described by Palamakumbura et al.[35]. Enzyme and inhibitor were incubated at 37 °C for the desired inhibition time, diluted into the assay mixture, and analyzed by fluorescence (Agilent Technologies Cary Eclipse Fluorescence Spectrometer, Cary Eclipse Software, 37 °C, λex = 568 and λem = 581 nm). The assay was carried out in boric acid buffer (50 mM, pH 8.2) with 1.2 M urea for LOX or in phosphate buffer (0.1 M, pH = 7.0) for LSDAO. The final reagent concentrations in the assay mixture were 10 mM cadaverine, 10 μM Amplex UltraRed (Life Technologies, Carlsbad, CA), and 1 U/mL horse radish peroxidase (Amresco, Solon, OH).
(§2) The enzyme activity, which is proportional to the rate of increase in fluorescence, was measured for each experiment. Residual activity was calculated by dividing each rate by a maximum rate determined in the absence of inhibitor such that [residual activity] = ([rate with inhibitor] – [baseline rate])/([maximum rate] – [baseline rate]). […] The residual activities from replicate experiments were averaged. For each inhibitor concentration, log([average residual activity]) was plotted against inhibition time. Linear lines of best fit forced through the origin were calculated for each data set using Graphpad Prism 5.0b (La Jolla, CA). For each inhibitor, the slopes of these lines (min^−1) were plotted as –1/slope against 1/[inhibitor concentration] to produce a Kitz–Wilson plot.
(§3) To quantify the selectivity of each inhibitor, we defined a numerical “selectivity factor” as the inhibitor's IC50 value for LOX divided by its IC50 value for LSDAO (Figure 3(C)).

[1] = molecular target: T2, lentil seedling diamine oxidase (LSDAO) (Lens culinaris, UniProt P49252); experiment: LSDAO activity assay (Amplex UltraRed/HRP fluorescence) after preincubation of enzyme with inhibitor; format: biochemical
T2 construct: Eight-day-old lentil seedlings (Lens esculenta) were blended and extracted; from tissue; host or cells: eight-day-old lentil seedlings (Lens esculenta)
T2 sequence (P49252 19-667): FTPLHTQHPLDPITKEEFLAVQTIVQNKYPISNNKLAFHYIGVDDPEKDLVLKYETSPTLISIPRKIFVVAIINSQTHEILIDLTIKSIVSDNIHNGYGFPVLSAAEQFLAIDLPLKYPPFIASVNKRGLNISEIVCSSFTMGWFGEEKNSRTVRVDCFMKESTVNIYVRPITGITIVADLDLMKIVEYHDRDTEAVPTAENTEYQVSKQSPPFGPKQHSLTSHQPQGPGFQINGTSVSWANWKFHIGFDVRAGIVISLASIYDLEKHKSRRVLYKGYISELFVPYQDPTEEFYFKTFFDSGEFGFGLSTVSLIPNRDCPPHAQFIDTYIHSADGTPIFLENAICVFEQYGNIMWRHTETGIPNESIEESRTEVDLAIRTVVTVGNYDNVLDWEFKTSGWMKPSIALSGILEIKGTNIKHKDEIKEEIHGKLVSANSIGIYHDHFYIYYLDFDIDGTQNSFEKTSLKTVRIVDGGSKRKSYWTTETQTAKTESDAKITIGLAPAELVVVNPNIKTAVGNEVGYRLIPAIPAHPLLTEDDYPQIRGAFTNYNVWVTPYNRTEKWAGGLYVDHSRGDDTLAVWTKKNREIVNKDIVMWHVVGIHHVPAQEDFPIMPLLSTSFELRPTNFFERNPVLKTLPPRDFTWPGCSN
Description: The LSDAO extraction process was carried out at 4 °C according to the method of Floris et al.[30] with slight modifications. Eight-day-old lentil seedlings (Lens esculenta) were blended and extracted with phosphate buffer (5 mM, pH 6.0, buffer A). Ammonium sulfate (230 g/L, 40% saturation) was used to precipitate contaminants, and then additional ammonium sulfate (125 g/L, 60% saturation) was used to precipitate the LSDAO. The crude precipitate was redissolved, dialyzed against buffer A, applied to a DEAE column, and eluted with buffer A. Active fractions were adjusted to pH 6.5, applied to a CM resin column, and eluted with 5 mM phosphate buffer, pH 6.5. Active fractions were concentrated and the buffer was changed to 10 mM phosphate, pH 7.0 before the protein was applied to a Sephacryl S-300 column and eluted with the same buffer. The concentration of the LSDAO dimer was determined from its absorption at 278 nm in 0.1 M phosphate buffer[31] using a molar extinction coefficient of 2.45 × 10^5 M^−1 cm^−1.
as §1, §2, §3
From the slopes and y-intercepts of these lines, the kinetic parameters KI (the reversible binding constant) and k2 (the rate constant for irreversible reaction) (Figure 5(A)) can be calculated.

LOX [2] = details: literature data reprocessed by Kitz-Wilson analysis, cited from earlier work
[3] = stated in the text without reference; cited from earlier work
LOX [4] = system: LOX; design: method as in PMID 6131892; details: cited from earlier work
LOX [5] = system: LOX; design: method as in PMID 2888772; details: chick embryos; cited from earlier work
LOX [6] = system: LOX; design: method as in PMID 2571459; details: inhibition time not specified; read-out: IC50 LOX in vitro; cited from earlier work
rat lysyl oxidase = system: rat lysyl oxidase; design: method as in PMID 19524603; details: cited from earlier work
[7] = 10 min, read-out: Average Percent Activity Remaining, LSDAO
[8] = Kitz-Wilson plot, pH 8.0 and 37 °C
[9] = 10-min preincubation, 37 °C, read-out: IC50 LOX
[10] = 10-min preincubation, 37 °C; read-out: IC50 LSDAO
[11] = 4 min, read-out: Average Percent Activity Remaining, LSDAO
[12] = Kitz-Wilson analysis, rate constant for irreversible reaction
[13] = Kitz-Wilson analysis, reversible binding constant; read-out: LSDAO KI^-1 (range)

## NNc1ccccc1 [compound 1, phenylhydrazine, reference compound]
Lysyl oxidase (LOX)
  IC50: 6 µM
Lysyl oxidase (LOX); 10-min preincubation
  Selectivity factor (LOX IC50 value divided by LSDAO IC50 value): 600
[1]
  IC50: 0.01 µM
[1]; [7]
  remaining activity at 0.005 µM: 80%
  remaining activity at 0.0075 µM: 62%
  remaining activity at 0.01 µM: 50%
  remaining activity at 0.015 µM: 13%
  remaining activity at 0.03 µM: 0%
  remaining activity at 0.1 µM: 0%
  remaining activity at 0.5 µM: 0%
LOX [2]
  LOX k2 (range): 0.32 (0.16 to >10) min^-1 and 0.32 min^-1
LOX [2]; read-out: LOX KI^-1 (range)
  KI (inactivation): 13 µM
[3]
  pKa of conjugate acid: 5

## N#CCCN [compound 2, β-aminopropionitrile]
LOX [4]; 10 μM, 2-h incubation
  Inhibition of LOX at 10 μM: full inhibition
LOX [4]; 2-h incubation
  IC50: 0.2 µM
LOX [4]; [8]
  KI (inactivation): 6 µM
  k2 LOX: 0.16 min⁻¹

## CCCCCC(=O)NN [compound 3]
Lysyl oxidase (LOX); [9]
  IC50: 20 µM
Lysyl oxidase (LOX); 10-min preincubation
  Selectivity factor (LOX IC50 value divided by LSDAO IC50 value): 10
Lysyl oxidase (LOX); 4 min
  remaining activity at 4 µM: 93%
  remaining activity at 7 µM: 78%
  remaining activity at 20 µM: 69%
  remaining activity at 100 µM: 27%
  remaining activity at 500 µM: 8%
Lysyl oxidase (LOX); 10 min
  remaining activity at 4 µM: 84%
  remaining activity at 7 µM: 75%
  remaining activity at 20 µM: 48%
  remaining activity at 100 µM: 3%
Lysyl oxidase (LOX)
  LOX k2 (range): 0.40 (0.23–1.4) min^-1 and 0.4 min^-1 and 0.40 min^-1
  KI (inactivation): 200 µM
Lysyl oxidase (LOX); compared to phenylhydrazine
  fold lower affinity for LOX than phenylhydrazine: 3 fold
[1]; [10]
  IC50: 2 µM
[1]; [11]
  remaining activity at 1 µM: 90%
  remaining activity at 2 µM: 80%
  remaining activity at 4 µM: 71%
  remaining activity at 8 µM: 54%
  remaining activity at 14 µM: 40%
  remaining activity at 20 µM: 33%
  remaining activity at 40 µM: 4%
  remaining activity at 500 µM: 0.7%
[1]; [7]
  remaining activity at 1 µM: 76%
  remaining activity at 2 µM: 52%
  remaining activity at 4 µM: 33%
  remaining activity at 8 µM: 13%
  remaining activity at 14 µM: 8%
  remaining activity at 20 µM: 4%
[1]; [12]
  LSDAO k2 (range): 0.67 (0.37–3.3) min^-1 and 0.7 min^-1 and 0.67 min^-1
[1]; [13]
  KI (inactivation): 50 µM and 54 µM

## CCCCCCCNN [compound 4]
Lysyl oxidase (LOX); [9]
  IC50: 40 µM
Lysyl oxidase (LOX); 10-min preincubation
  Selectivity factor (LOX IC50 value divided by LSDAO IC50 value): 1300
Lysyl oxidase (LOX); 4 min
  remaining activity at 7 µM: 89%
  remaining activity at 20 µM: 82%
  remaining activity at 100 µM: 59%
Lysyl oxidase (LOX); 10 min
  remaining activity at 7 µM: 83%
  remaining activity at 20 µM: 63%
  remaining activity at 100 µM: 30%
Lysyl oxidase (LOX)
  LOX k2 (range): 0.079 (0.073–0.087) min^-1 and 0.07–0.09 min^-1 and 0.079 min^-1
  KI (inactivation): 57 µM
[1]
  IC50: 0.03 µM
[1]; [11]
  remaining activity at 0.03 µM: 81%
  remaining activity at 0.08 µM: 60%
  remaining activity at 0.1 µM: 43%
  remaining activity at 0.2 µM: 22%
  remaining activity at 0.5 µM: 1%
  remaining activity at 1 µM: 1%
[1]; [7]
  remaining activity at 0.03 µM: 45%
  remaining activity at 0.08 µM: 15%
  remaining activity at 0.1 µM: 7%
  remaining activity at 0.2 µM: 2%
[1]; [12]
  LSDAO k2 (range): 1.0 (0.75–1.6) min^-1 and 1.0 min^-1
[1]; read-out: LSDAO KI^-1 (range); Kitz-Wilson analysis, reversible binding constant
  KI (inactivation): 0.9 µM

## CCCCNC(=O)NN [compound 5]
Lysyl oxidase (LOX); [9]
  IC50: 100 µM
Lysyl oxidase (LOX); 10-min preincubation
  Selectivity factor (LOX IC50 value divided by LSDAO IC50 value): 25
Lysyl oxidase (LOX); 4 min
  remaining activity at 40 µM: 93%
  remaining activity at 100 µM: 76%
  remaining activity at 500 µM: 35%
Lysyl oxidase (LOX); 10 min
  remaining activity at 40 µM: 78%
  remaining activity at 100 µM: 52%
  remaining activity at 500 µM: 6%
Lysyl oxidase (LOX)
  LOX k2 (range): > 0.50 min⁻¹
  KI (inactivation): > 1000 µM
[1]; [10]
  IC50: 4 µM
[1]; [11]
  remaining activity at 1 µM: 89%
  remaining activity at 2 µM: 78%
  remaining activity at 4 µM: 69%
  remaining activity at 20 µM: 41%
  remaining activity at 100 µM: 1%
[1]; [7]
  remaining activity at 1 µM: 84%
  remaining activity at 2 µM: 71%
  remaining activity at 4 µM: 50%
  remaining activity at 20 µM: 7%
[1]; [12]
  LSDAO k2 (range): 0.91 (0.50–5.0) min^-1 and 0.91 min^-1
[1]; [13]
  KI (inactivation): 112 µM

## NNC(=O)c1ccncc1 [hydrazide of isonicotinic acid]
LOX [5]
  Inhibition of LOX in vivo: can partially inhibit LOX

## NNC(N)=O [semicarbazide]
LOX [6]
  IC50: 30 µM
Rat lysyl oxidase
  Inhibition of lysyl oxidase in vivo compared to BAPN: nearly as effective as BAPN
